Reference: ChEMBL document CHEMBL4177750, “Imidazopyrazinones (IPYs): Non-Quinolone Bacterial Topoisomerase Inhibitors Showing Partial Cross-Resistance with Quinolones” (J Med Chem, 2018)
In brackets after ≈: the same amount, converted by molar mass. Activity calls are given as the source filed them. The calls are words filed in the database; no cut-off is given here.

Columns and labels:
[1] = tested on: Escherichia coli; assay: Antibacterial activity against ESBL producing Escherichia coli ATCC 35218 after 20 to 22 hrs; format: functional
[2] = tested on: Escherichia coli; assay: Antibacterial activity against Escherichia coli K-12 MG1655 after 20 to 22 hrs; settings: K-12 substr. MG1655
[3] = tested on: Escherichia coli; assay: Antibacterial activity against tolC-deficient Escherichia coli K-12 MG1655 after 20 to 22 hrs; format: functional; settings: K-12 substr. MG1655
[4] = tested on: Escherichia coli; assay: Antibacterial activity against hyperpermeable Escherichia coli D22 harboring LpxC mutant after 20 to 22 hrs
[5] = tested on: Pseudomonas aeruginosa; assay: Antibacterial activity against Pseudomonas aeruginosa PAO1 after 20 to 22 hrs; format: functional
[6] = tested on: Pseudomonas aeruginosa; assay: Antibacterial activity against Pseudomonas aeruginosa PAO750 harboring mexAB-oprM/mexCD-oprJ/mexEF-oprN/mexXY/opmH/mexJK/pscC deletion mutant after 20 to 22 hrs; format: functional
[7] = tested on: Staphylococcus aureus; assay: Antibacterial activity against methicillin-resistant Staphylococcus aureus ATCC 33592 after 20 to 22 hrs; format: functional
[8] = tested on: Escherichia coli; assay: Antibacterial activity against tolC-deficient fluoroquinolones-sensitive Escherichia coli JC7623 clinical isolate harboring wild type DNA gyrase after 20 to 22 hrs
[9] = tested on: Escherichia coli; assay: Antibacterial activity against tolC-deficient fluoroquinolones-resistant Escherichia coli W4753 clinical isolate harboring DNA gyrase S83L/D87N/ParC S80I/ParE S458A mutant after 20 to 22 hrs
[10] = target: DNA gyrase (Escherichia coli, UniProt P0AES4+P0AES6)
Description: Inhibition of Escherichia coli DNA gyrase A2B2 using relaxed pNO1 as substrate

[11] = tested on: Staphylococcus aureus; assay: Antibacterial activity against methicillin-resistant Staphylococcus aureus ATCC 33592 after 20 to 22 hrs in presence of 50% calf fetal serum; format: functional, organism-based
[12] = tested on: Staphylococcus aureus; assay: Antibacterial activity against methicillin-resistant Staphylococcus aureus ATCC 33592 after 20 to 22 hrs in presence of 50% mouse serum; format: functional, organism-based
[13] = tested on: Staphylococcus aureus; assay: Antibacterial activity against wild type Staphylococcus aureus RN4220 after 20 to 22 hrs; format: functional
[14] = tested on: Staphylococcus aureus; assay: Antibacterial activity against Staphylococcus aureus RN4220 harboring GyrA D83N mutant after 20 to 22 hrs; format: functional
[15] = tested on: Staphylococcus aureus; assay: Antibacterial activity against Staphylococcus aureus RN4220 harboring GyrA D83N/ParC D79N double mutant after 20 to 22 hrs; format: functional
[16] = tested on: Staphylococcus aureus; assay: Antibacterial activity against Staphylococcus aureus RN4220 harboring GyrB D437N mutant after 20 to 22 hrs; format: functional
[17] = tested on: Staphylococcus aureus; assay: Antibacterial activity against Staphylococcus aureus RN4220 harboring ParC S80F mutant after 20 to 22 hrs; format: functional
[18] = tested on: Staphylococcus aureus; assay: Antibacterial activity against Staphylococcus aureus RN4220 harboring ParC S80F/GyrA S84L double mutant after 20 to 22 hrs; format: functional
[19] = tested on: Klebsiella pneumoniae; assay: Antibacterial activity against wild type Klebsiella pneumoniae 1161486 after 20 to 22 hrs; format: functional
[20] = tested on: Klebsiella pneumoniae; assay: Antibacterial activity against Klebsiella pneumoniae 1161486 harboring GyrA S83I mutant after 20 to 22 hrs; format: functional
[21] = tested on: Klebsiella pneumoniae; assay: Antibacterial activity against Klebsiella pneumoniae 1161486 harboring GyrA S83I/ParC S80I double mutant after 20 to 22 hrs; format: functional
[22] = tested on: Klebsiella pneumoniae; assay: Antibacterial activity against Klebsiella pneumoniae 1161486 harboring GyrA S83F/D87V/ParC S80I triple mutant after 20 to 22 hrs; format: functional
[23] = Cytotoxicity against human HepG2 cells assessed as decrease in cell viability after 40 hrs by Celltiter Glo assay
[24] = Solubility of the compound in water; format: physicochemical; settings: buffer
[25] = Permeability across human Caco2 cells; format: ADME, cell-based; settings: Caco-2
[26] = Metabolic stability in mouse liver microsomes; format: ADME, microsome
[27] = Metabolic stability in human liver microsomes; format: ADME, microsome
[28] = Drug degradation in DMSO solution in presence of mercaptoethanol measured within 1 hr; format: physicochemical; settings: DMSO solution with mercaptoethanol; read-out: Drug degradation
[29] = Drug degradation in DMSO solution in presence of glutathione measured within 1 hr; format: physicochemical; settings: DMSO solution with glutathione; read-out: Drug degradation
[30] = Chemical stability in pH 7.4 buffer solution; format: physicochemical
[31] = target: hERG (KCNH2) (Homo sapiens, UniProt Q12809); assay: Inhibition of human ERG transfected in CHO cells at 10 uM by patch clamp method relative to control; format: cell-based; settings: CHO cells transfected with human ERG
Sequence of hERG (KCNH2) (Q12809 whole entry): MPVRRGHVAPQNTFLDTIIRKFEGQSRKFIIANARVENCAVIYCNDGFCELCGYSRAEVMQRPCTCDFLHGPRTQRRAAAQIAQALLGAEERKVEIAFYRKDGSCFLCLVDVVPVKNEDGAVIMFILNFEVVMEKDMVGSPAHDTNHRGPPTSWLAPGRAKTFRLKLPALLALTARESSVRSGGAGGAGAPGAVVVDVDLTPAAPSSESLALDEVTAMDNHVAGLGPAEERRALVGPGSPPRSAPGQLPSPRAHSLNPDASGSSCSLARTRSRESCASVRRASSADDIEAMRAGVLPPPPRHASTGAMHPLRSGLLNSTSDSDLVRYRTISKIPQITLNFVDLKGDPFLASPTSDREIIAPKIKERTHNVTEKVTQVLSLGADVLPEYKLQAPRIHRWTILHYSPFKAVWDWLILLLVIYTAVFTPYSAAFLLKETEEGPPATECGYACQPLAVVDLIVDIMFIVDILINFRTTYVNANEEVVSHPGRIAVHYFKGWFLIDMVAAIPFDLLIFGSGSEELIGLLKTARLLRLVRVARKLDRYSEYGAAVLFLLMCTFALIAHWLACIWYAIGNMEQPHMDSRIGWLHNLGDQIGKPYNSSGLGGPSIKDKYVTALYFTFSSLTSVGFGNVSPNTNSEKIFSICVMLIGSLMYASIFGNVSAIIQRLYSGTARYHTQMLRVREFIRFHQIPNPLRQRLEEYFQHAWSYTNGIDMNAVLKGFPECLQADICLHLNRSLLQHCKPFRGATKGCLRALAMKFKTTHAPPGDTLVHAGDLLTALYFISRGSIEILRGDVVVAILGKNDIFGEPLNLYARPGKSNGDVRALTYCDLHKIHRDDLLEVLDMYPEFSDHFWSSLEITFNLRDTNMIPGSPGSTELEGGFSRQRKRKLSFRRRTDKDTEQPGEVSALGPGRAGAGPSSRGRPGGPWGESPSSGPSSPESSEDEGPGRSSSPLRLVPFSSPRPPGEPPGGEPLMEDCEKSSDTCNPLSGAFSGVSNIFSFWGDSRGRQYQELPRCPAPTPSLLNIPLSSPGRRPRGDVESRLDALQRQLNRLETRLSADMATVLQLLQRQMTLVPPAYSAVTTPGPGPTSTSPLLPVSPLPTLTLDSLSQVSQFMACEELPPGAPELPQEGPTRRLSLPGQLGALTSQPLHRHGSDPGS

[32] = tested on: Staphylococcus aureus; assay: Ratio of MIC for methicillin-resistant Staphylococcus aureus ATCC 33592 in presence of 50% mouse serum to MIC for methicillin-resistant Staphylococcus aureus ATCC 33592 in absence of 50% mouse serum; format: functional
[33] = tested on: Staphylococcus aureus; assay: Ratio of MIC for methicillin-resistant Staphylococcus aureus ATCC 33592 in presence of 50% calf fetal serum to MIC for methicillin-resistant Staphylococcus aureus ATCC 33592 in absence of 50% calf fetal serum; format: functional
[34] = Drug metabolism in human liver microsomes at 5 uM after 20 mins in presence of NADPH; format: ADME, microsome; settings: read-out: Drug metabolism
[35] = Drug metabolism in mouse liver microsomes at 5 uM after 20 mins in presence of NADPH; format: ADME, microsome; settings: read-out: Drug metabolism
[36] = Drug metabolism in rat liver microsomes at 5 uM after 20 mins in presence of NADPH; format: ADME, microsome; settings: read-out: Drug metabolism
[37] = Metabolic stability in mouse plasma at 1 uM after 4 hrs; format: ADME, cell-free; settings: read-out: Stability
[38] = Metabolic stability in rat plasma at 1 uM after 4 hrs; format: ADME, cell-free; settings: read-out: Stability
[39] = tested on: L5178Y; assay: Genotoxicity in mouse L5178Y cells after 23 hrs in absence of S9 fraction by micronucleus test; format: toxicity, cell-based
[40] = tested on: L5178Y; assay: Genotoxicity in mouse L5178Y cells after 3 hrs in presence of S9 fraction by micronucleus test; format: toxicity, cell-based; settings: s9, 3 h

Structure (SMILES) | MIC [1] [µg/mL] | MIC [2] [µg/mL] | MIC [3] [µg/mL] | MIC [4] [µg/mL] | MIC [5] [µg/mL] | MIC [6] [µg/mL] | MIC [7] [µg/mL] | MIC [8] [µg/mL] | MIC [9] [µg/mL] | further results
Cn1c(=O)c2nccn2c2/c(=C/c3ccncc3)c3ccccc3c21 | > 64 | > 64 | < 0.125 | > 64 | > 64 | > 64 | > 64 | 0.016 (≈ 0.049 µM) | 0.25 (≈ 0.766 µM) | –
Cn1cc(-c2ccc(NC(=O)Cc3ccc(Cl)cc3)cc2)n2ccnc2c1=O | > 32 | > 32 | 1 (≈ 2.55 µM) | 32 (≈ 81.5 µM) | > 32 | > 32 | > 32 | 0.125 (≈ 0.318 µM) | 4 (≈ 10.2 µM) | IC50 [10]: 6.35 µM
O=c1c2cncn2c2cc(F)c(-c3ccncc3)cc2n1C1CC1 | 64 (≈ 200 µM) | > 64 | 0.25 (≈ 0.78 µM) | 64 (≈ 200 µM) | > 64 | 32 (≈ 99.9 µM) | 64 (≈ 200 µM) | – | – | –
O=c1c2nccn2c2cc(F)c(-c3ccccn3)cc2n1C1CC1 | > 64 | > 64 | 4 (≈ 12.5 µM) | > 64 | > 64 | > 64 | > 64 | – | – | –
O=c1c2nccn2c2cc(F)c(-c3cccnc3)cc2n1C1CC1 | 16 (≈ 49.9 µM) | 32 (≈ 99.9 µM) | < 0.125 | 8 (≈ 25 µM) | > 64 | 4 (≈ 12.5 µM) | 64 (≈ 200 µM) | – | – | –
N[C@H]1CCN(c2cc3c(cc2F)c2nc[nH]c2c(=O)n3C2CC2)C1 | 16 (≈ 48.9 µM) | 64 (≈ 196 µM) | 0.5 (≈ 1.53 µM) | 16 (≈ 48.9 µM) | 64 (≈ 196 µM) | 0.5 (≈ 1.53 µM) | 16 (≈ 48.9 µM) | – | – | Activity [11]: Active; Activity [12]: Active
O=c1c2ncnn2c2cc(F)c(-c3ccncc3)cc2n1C1CC1 | 32 (≈ 99.6 µM) | > 64 | < 0.125 | 32 (≈ 99.6 µM) | > 64 | 32 (≈ 99.6 µM) | 16 (≈ 49.8 µM) | – | – | –
O=C(O)c1cn(C2CC2)c2cc(N3CCNCC3)c(F)cc2c1=O [CIPROFLOXACIN] | < 0.125 | – | < 0.125 | < 0.125 | – | < 0.125 | – | – | – | MIC [13]: 0.25 µg/mL (≈ 0.754 µM); MIC [14]: 0.25 µg/mL (≈ 0.754 µM); MIC [15]: 1 µg/mL (≈ 3.02 µM); MIC [16]: 0.25 µg/mL (≈ 0.754 µM); MIC [17]: 1 to 2 µg/mL (≈ 3.02 to 6.04 µM); MIC [18]: 64 µg/mL (≈ 193 µM); MIC [19]: < 0.063 µg/mL; MIC [20]: 1 µg/mL (≈ 3.02 µM); MIC [21]: 8 µg/mL (≈ 24.1 µM); MIC [22]: 8 µg/mL (≈ 24.1 µM)
N[C@H]1CCN(c2cc3c(cc2F)n2cncc2c(=O)n3C2CC2)C1 | 16 (≈ 48.9 µM) | 32 (≈ 97.8 µM) | 1 (≈ 3.05 µM) | 16 (≈ 48.9 µM) | > 64 | 1 (≈ 3.05 µM) | 16 (≈ 48.9 µM) | – | – | Activity [11]: Active; Activity [12]: Active
CC(=O)Nc1ccc(/C=c2\c3ccccc3c3c2n2ccnc2c(=O)n3C)cc1 | > 64 | > 64 | < 0.125 | > 64 | > 64 | > 64 | 0.25 (≈ 0.654 µM) | 0.063 (≈ 0.165 µM) | 2 (≈ 5.23 µM) | CC50 at 40 h [23]: 8.4 µM; solubility [24]: Insoluble; permeability [25]: Impermeable; Stability [26]: Unstable; Stability [27]: Unstable; degraded at 1 h [28]: > 50%; degraded at 1 h [29]: > 50%; Stability [30]: Stable; inhibition at 10 µM [31]: > 50%; Ratio [32]: >32; Ratio [33]: >32
N[C@H]1CCN(c2cc3c(cc2F)c(=O)n(N)c(=O)n3C2CC2)C1 | 1 (≈ 3.13 µM) | 1 (≈ 3.13 µM) | < 0.125 | 0.5 (≈ 1.57 µM) | 32 (≈ 100 µM) | < 0.125 | 2 (≈ 6.26 µM) | – | – | –
CNc1cc(=O)n(C)c2c1/C(=C/c1ccncc1)c1ccccc1-2 | – | – | – | – | – | – | – | 1 (≈ 3.17 µM) | 2 (≈ 6.34 µM) | –
O=c1c2nccn2c2cc(F)c(-c3ccncc3)cc2n1C1CC1 | 16 (≈ 49.9 µM) | 32 (≈ 99.9 µM) | < 0.125 | – | > 64 | 8 (≈ 25 µM) | 4 (≈ 12.5 µM) | 0.063 (≈ 0.197 µM) | 0.5 (≈ 1.56 µM) | Activity [11]: Active; Activity [12]: Active; metabolised at 20 min, 5 µM [34]: 13%; metabolised at 20 min, 5 µM [35]: 81%; metabolised at 20 min, 5 µM [36]: 68%; remaining at 4 h, 1 µM [37]: 80 to 120%; remaining at 4 h, 1 µM [38]: 80 to 120%; Activity [39]: Toxic; Activity [40]: Toxic
